From PubChem BioAssay AID328 (DTP/NCI, 2004)
Values joined by “and” are separate entries in the source; they are usually repeats but may differ in a detail not shown here. Equal values may be shown once. Toxic doses and inconclusive results are not listed.

System: BDF1 mice, P388 leukemia ip, median survival T/C
Assay: NCI In Vivo Anticancer Drug Screen. Data for tumor model P388 Leukemia (intraperitoneal) in B6D2F1 (BDF1) mice
Conditions: endpoint: median survival time, higher = longer survival
In short: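 In tumour-bearing mice, survival after compound treatment is set against the vehicle group and given as a quotient.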

[1] = dose: 100.0 mg/kg/injection, schedule: Q01DX009 (ip), vehicle: saline
[2] = dose: 100.0 mg/kg/injection, schedule: Q04DX003 (ip), vehicle: saline
[3] = dose: 200.0 mg/kg/injection, schedule: Q04DX003 (ip), vehicle: saline
[4] = dose: 400.0 mg/kg/injection, schedule: Q04DX003 (ip), vehicle: saline
[5] = dose: 100.0 mg/kg/injection, schedule: Q01DX009 (ip), vehicle: saline with Tween-80
[6] = dose: 200.0 mg/kg/injection, schedule: Q01DX009 (ip), vehicle: saline with Tween-80
[7] = dose: 400.0 mg/kg/injection, schedule: Q01DX009 (ip), vehicle: saline with Tween-80
[8] = dose: 100.0 mg/kg/injection, schedule: Q04DX003 (ip), vehicle: saline with Tween-80
[9] = dose: 200.0 mg/kg/injection, schedule: Q04DX003 (ip), vehicle: saline with Tween-80
[10] = dose: 400.0 mg/kg/injection, schedule: Q04DX003 (ip), vehicle: saline with Tween-80
[11] = dose: 100.0 mg/kg/injection, schedule: Q01DX001 (ip), vehicle: Klucel (hydroxypropylcellulose) (HPC)
[12] = dose: 200.0 mg/kg/injection, schedule: Q01DX001 (ip), vehicle: Klucel (hydroxypropylcellulose) (HPC)
[13] = dose: 400.0 mg/kg/injection, schedule: Q01DX001 (ip), vehicle: Klucel (hydroxypropylcellulose) (HPC)
[14] = dose: 100.0 mg/kg/injection, schedule: Q04DX003 (ip), vehicle: Klucel (hydroxypropylcellulose) (HPC)
[15] = dose: 200.0 mg/kg/injection, schedule: Q04DX003 (ip), vehicle: Klucel (hydroxypropylcellulose) (HPC)
[16] = dose: 400.0 mg/kg/injection, schedule: Q04DX003 (ip), vehicle: Klucel (hydroxypropylcellulose) (HPC)
[17] = dose: 50.0 mg/kg/injection, schedule: Q01DX009 (ip), vehicle: saline
[18] = dose: 50.0 mg/kg/injection, schedule: Q01DX009 (ip), vehicle: saline with Tween-80

CC(C#N)Oc1cccc2ccccc12 (centres undefined) was tested, and the T/C (dose: 2.0 mg/kg/injection, schedule: Q01DX009 (ip), vehicle: DMSO) was 96 % of control, the T/C (dose: 3.0 mg/kg/injection, schedule: Q01DX009 (ip), vehicle: DMSO) was 115 % of control and the T/C (dose: 4.5 mg/kg/injection, schedule: Q01DX009 (ip), vehicle: DMSO) was 110 % of control. The T/C (dose: 6.0 mg/kg/injection, schedule: Q01DX009 (ip), vehicle: DMSO) was 110 % of control, the T/C (dose: 12.0 mg/kg/injection, schedule: Q01DX009 (ip), vehicle: DMSO) was 120 % of control and the T/C (dose: 12.5 mg/kg/injection, schedule: Q01DX009 (ip), vehicle: DMSO) was 88 % of control. For the same compound, the T/C (dose: 25.0 mg/kg/injection, schedule: Q01DX009 (ip), vehicle: DMSO) was 88 % of control and the T/C (dose: 100.0 mg/kg/injection, schedule: Q04DX003 (ip), vehicle: DMSO) was 100 % of control.
For CN(C)C(=O)NNC(=O)N(C)C, the T/C [1] was 104 % of control, the T/C [2] was 100 % of control and the T/C (dose: 200.0 mg/kg/injection, schedule: Q01DX009 (ip), vehicle: saline) was 95 % of control. The T/C [3] was 100 % of control, the T/C (dose: 400.0 mg/kg/injection, schedule: Q01DX009 (ip), vehicle: saline) was 95 % of control and the T/C [4] was 100 % of control.
In the case of O=Cc1c2c(c(C=O)c3c1OCO3)OCO2, the T/C (dose: 100.0 mg/kg/injection, schedule: Q01DX001 (ip), vehicle: saline with Tween-80) is reported as 97 % of control, the T/C (dose: 200.0 mg/kg/injection, schedule: Q01DX001 (ip), vehicle: saline with Tween-80) is reported as 97 % of control and the T/C (dose: 400.0 mg/kg/injection, schedule: Q01DX001 (ip), vehicle: saline with Tween-80) is reported as 90 % of control.
For C=C1C(=O)O[C@@H]2[C@H]3O[C@]3(C)CCC=C(C)CC[C@@H]12, the T/C (dose: 6.25 mg/kg/injection, schedule: Q01DX009 (ip), vehicle: alcohol) was 90 % of control, the T/C (dose: 12.5 mg/kg/injection, schedule: Q01DX009 (ip), vehicle: alcohol) was 122 % of control and the T/C (dose: 25.0 mg/kg/injection, schedule: Q01DX009 (ip), vehicle: alcohol) was 122 % of control. The T/C (dose: 50.0 mg/kg/injection, schedule: Q01DX009 (ip), vehicle: alcohol) was 113 % of control.
In the case of C[Si](C)(C)O[Si](C)(C)c1ccccc1, the T/C (dose: 100.0 mg/kg/injection, schedule: Q01DX001 (ip), vehicle: saline) is reported as 104 % of control, the T/C (dose: 200.0 mg/kg/injection, schedule: Q01DX001 (ip), vehicle: saline) is reported as 95 % of control and the T/C (dose: 400.0 mg/kg/injection, schedule: Q01DX001 (ip), vehicle: saline) is reported as 95 % of control.
With CN(C)C(=O)C1CCC1 the T/C [5] was 104 % of control, the T/C [6] was 90 % of control and the T/C [7] was 113 % of control.
CC(C)C1=CC2=CC[C@@H]3[C@](C)(CCC[C@@]3(C)C(=O)O)[C@H]2CC1 was tested, and the T/C [5] was 100 % of control, the T/C [8] was 100 % of control and the T/C [6] was 100 % of control. The T/C [9] was 100 % of control, the T/C [7] was 100 % of control and the T/C [10] was 100 % of control.
With CC1=CC(C)(C)NC(=S)N1c1ccccc1 the T/C (dose: 75.0 mg/kg/injection, schedule: Q04DX003 (ip), vehicle: Klucel (hydroxypropylcellulose) (HPC)) was 100 % of control, the T/C [11] was 95 % of control and the T/C (dose: 150.0 mg/kg/injection, schedule: Q04DX003 (ip), vehicle: Klucel (hydroxypropylcellulose) (HPC)) was 100 % of control. For the same compound, the T/C [12] was 104 % of control, the T/C (dose: 300.0 mg/kg/injection, schedule: Q04DX003 (ip), vehicle: Klucel (hydroxypropylcellulose) (HPC)) was 100 % of control and the T/C [13] was 109 % of control.
For Cc1ccc2c(ccc(C)[n+]2C)c1, the T/C (dose: 67.0 mg/kg/injection, schedule: Q01DX009 (ip), vehicle: saline) was 183 % of control and the T/C [1] was 150 % of control.
O=C1C=C(O/C=C/C(C(F)(F)F)C(F)(F)F)C(=O)c2ccccc21 was tested, and the T/C [5] was 109 % of control.
With C1=CC2C3CC(OCCOC4CC5CC4C4CC=CC54)C(C3)C2C1 (centres undefined) the T/C [8] was 115 % of control, the T/C [9] was 115 % of control and the T/C [10] was 120 % of control.
With Cc1ccc(OC/C=C/CS(=O)(=O)c2ccc(Cl)cc2)cc1 the T/C [14] was 95 % of control, the T/C [15] was 95 % of control and the T/C [16] was 104 % of control.
For Cc1cc2nc3ccc(=[N+](C)C)cc-3sc2cc1N, the T/C (dose: 25.0 mg/kg/injection, schedule: Q01DX009 (ip), vehicle: saline) was 90 % of control and 113 % of control, the T/C (dose: 25.0 mg/kg/injection, schedule: Q04DX003 (ip), vehicle: saline) was 109 % of control and 96 % of control and the T/C [17] was 100 % of control and 113 % of control. For the same compound, the T/C (dose: 50.0 mg/kg/injection, schedule: Q04DX003 (ip), vehicle: saline) was 114 % of control and the T/C [2] was 121 % of control.
COc1ccc(/C(=C\S(C)(=O)=O)c2cccs2)cc1 was tested, and the T/C [18] was 88 % of control, the T/C [5] was 91 % of control and the T/C [6] was 105 % of control.
For O=C(Nc1cccc(C(=O)Nc2ccc(C3=NCCN3)cc2)c1)c1ccc(C2=NCCN2)cc1, the T/C (dose: 16.5 mg/kg/injection, schedule: Q01DX009 (ip), vehicle: saline) was 122 % of control.
In the case of Cc1cc(N(CCCl)CCCl)ccc1C=Nc1ccc(F)cc1, the T/C [10] is reported as 150 % of control and the T/C (dose: 600.0 mg/kg/injection, schedule: Q04DX003 (ip), vehicle: saline with Tween-80) is reported as 179 % of control.
With ClCCN(CCCl)c1ccc(/C=C\c2ccnc3ccccc23)cc1 the T/C [5] was 104 % of control and the T/C [6] was 86 % of control.
For CCN(CC)CC(C)OC(=O)c1ccc(N)cc1 (centres undefined), the T/C (dose: 33.0 mg/kg/injection, schedule: Q01DX009 (ip), vehicle: saline) was 92 % of control, the T/C [17] was 100 % of control and the T/C (dose: 75.0 mg/kg/injection, schedule: Q01DX009 (ip), vehicle: saline) was 104 % of control. For the same compound, the T/C [1] was 100 % of control, the T/C [2] was 95 % of control and the T/C [3] was 86 % of control.
CCCCCCCCCC(O)CCC (centres undefined) was tested, and the T/C [14] was 95 % of control, the T/C [15] was 95 % of control and the T/C [16] was 95 % of control.
In the case of CC1=CC2C(C3C=CC2(C)C(=O)C3(C)Cc2ccccc2)C(C)(Cc2ccccc2)C1=O (centres undefined), the T/C [11] is reported as 95 % of control, the T/C [12] is reported as 95 % of control and the T/C [13] is reported as 90 % of control.
O=C(OCC#CC#CCOC(=O)c1cccc2ccccc12)c1cccc2ccccc12 was tested, and the T/C (dose: 100.0 mg/kg/injection, schedule: Q01DX009 (ip), vehicle: Klucel (hydroxypropylcellulose) (HPC)) was 100 % of control, the T/C (dose: 200.0 mg/kg/injection, schedule: Q01DX009 (ip), vehicle: Klucel (hydroxypropylcellulose) (HPC)) was 95 % of control and the T/C (dose: 400.0 mg/kg/injection, schedule: Q01DX009 (ip), vehicle: Klucel (hydroxypropylcellulose) (HPC)) was 105 % of control.
In the case of CCOC(=O)C(C)C(O)(c1ccccc1)c1ccccc1 (centres undefined), the T/C [14] is reported as 100 % of control, the T/C [15] is reported as 104 % of control and the T/C [16] is reported as 104 % of control.
In the case of Cc1ccc(C(=O)C2CC2)c(C)c1, the T/C [18] is reported as 92 % of control, the T/C [5] is reported as 103 % of control and the T/C [8] is reported as 112 % of control. For the same compound, the T/C [6] was 100 % of control, the T/C [9] was 120 % of control and the T/C [10] was 108 % of control.
In the case of Clc1cccc(-c2nc3ccccc3c3ccccc23)c1, the T/C [5] is reported as 105 % of control, the T/C [6] is reported as 120 % of control and the T/C [7] is reported as 95 % of control.
Cc1cccc(C)c1N=CNc1c(C)cccc1C.[Cu+2] was tested, and the T/C (dose: 25.0 mg/kg/injection, schedule: Q01DX009 (ip), vehicle: saline with Tween-80) was 103 % of control and the T/C [18] was 86 % of control.
For CN(C)C(=S)SCC(=O)NC(CO)C(=O)O (centres undefined), the T/C [18] was 98 % of control, the T/C [5] was 98 % of control and the T/C [6] was 89 % of control.
For O=C1CCN2C=CC=CC2=N1, the T/C [2] was 104 % of control, the T/C [3] was 100 % of control and the T/C [4] was 95 % of control.
C=C/C=C/CCC(=O)C=[N+]=[N-] was tested, and the T/C (dose: 50.0 mg/kg/injection, schedule: Q01DX005 (ip), vehicle: saline with Tween-80) was 91 % of control, the T/C (dose: 100.0 mg/kg/injection, schedule: Q01DX005 (ip), vehicle: saline with Tween-80) was 97 % of control and the T/C (dose: 200.0 mg/kg/injection, schedule: Q01DX005 (ip), vehicle: saline with Tween-80) was 101 % of control.
